This is an account of results in patent US11919883B2, “Metalloenzyme inhibitor compounds” (Ji Xing Pharmaceuticals Hong Kong Limited, priority 2016, dated 2024).

For assay [1], the target named is T1, recombinant human CYP11B2 (Homo sapiens, UniProt P19099).
T1 construct: made in house; host or cells: V79-4 cells (enzyme enriched microsomal fraction of cell lysates)
T1 sequence (P19099 25-503): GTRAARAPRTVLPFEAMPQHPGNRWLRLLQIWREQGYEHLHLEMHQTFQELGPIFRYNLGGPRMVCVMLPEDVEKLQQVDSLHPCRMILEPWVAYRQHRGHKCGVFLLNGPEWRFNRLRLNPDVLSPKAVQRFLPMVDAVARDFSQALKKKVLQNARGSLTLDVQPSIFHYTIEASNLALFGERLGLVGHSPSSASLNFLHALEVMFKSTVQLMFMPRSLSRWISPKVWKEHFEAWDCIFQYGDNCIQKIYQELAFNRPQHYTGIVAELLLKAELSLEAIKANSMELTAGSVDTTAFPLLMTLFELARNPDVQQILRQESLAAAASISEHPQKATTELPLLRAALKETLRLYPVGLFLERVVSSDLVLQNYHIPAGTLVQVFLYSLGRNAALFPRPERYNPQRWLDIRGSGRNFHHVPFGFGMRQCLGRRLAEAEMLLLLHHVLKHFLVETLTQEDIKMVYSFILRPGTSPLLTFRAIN
The assay can be described thus: CYP11B2 enzyme assay, enzyme enriched microsomes from V79-4 cells, aldosterone by LC-MS. Type of assay: biochemical. The settings on record: IC50 ranges; run at Km of 11-deoxycorticosterone; read-out: hCYP11B2 IC50.
Procedure: (§1) An enzyme enriched microsomal fraction was prepared from cellular lysates and subsequently used as the enzyme source for determining inhibitor IC50s. […] Enzyme assays for inhibitor screening employed CYP11B2 and CYP11B1 enzyme enriched microsomes and were run at the Km of the respective substrates. Products of the enzyme reactions, aldosterone for CYP11B2 or cortisol for CYP11B1, were measured by LC-MS. Assays were run under conditions of less than 20% substrate turnover. Inhibitor IC50s were generated by determining the product formation in the absence or presence of inhibitor at various concentrations. In the absence of the test compound, the product formed (Pt) in each data set was defined as 100% activity. In the absence of enzyme, the product formed (Pb) in each data set was defined as 0% activity. The percent activity in the presence of each inhibitor was calculated according to the following equation: % activity=(P−Pb)/(Pt−Pb), where P=the product formed in the presence of the inhibitor.

Assay [2] deals with T2, recombinant human CYP11B1 (Homo sapiens, UniProt P15538).
T2 construct: made in house; host or cells: V79-4 cells (enzyme enriched microsomal fraction of cell lysates)
T2 sequence (P15538 25-503): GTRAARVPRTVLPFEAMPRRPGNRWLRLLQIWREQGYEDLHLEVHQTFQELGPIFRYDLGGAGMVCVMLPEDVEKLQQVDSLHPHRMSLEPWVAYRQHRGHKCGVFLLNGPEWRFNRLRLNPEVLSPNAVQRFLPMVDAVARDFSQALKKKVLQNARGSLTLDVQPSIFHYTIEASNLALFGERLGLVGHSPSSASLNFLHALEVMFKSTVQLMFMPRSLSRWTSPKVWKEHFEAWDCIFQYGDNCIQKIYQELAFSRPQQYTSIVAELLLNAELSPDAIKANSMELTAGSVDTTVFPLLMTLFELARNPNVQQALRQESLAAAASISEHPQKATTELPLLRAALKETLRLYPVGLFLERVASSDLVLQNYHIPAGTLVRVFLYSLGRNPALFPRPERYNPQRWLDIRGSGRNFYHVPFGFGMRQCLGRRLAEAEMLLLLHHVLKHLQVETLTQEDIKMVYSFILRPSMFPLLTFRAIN
As to the kind of experiment: CYP11B1 enzyme assay, enzyme enriched microsomes from V79-4 cells, cortisol by LC-MS. Type of assay: biochemical. The conditions noted are these: IC50 ranges; run at Km of 11-deoxycortisol; read-out: hCYP11B1 IC50.
Procedure: as §1

Structures are written as SMILES.

For the compound `Cc1ncncc1-c1nc2ccc(C#N)cc2n1C1CC1` [Example 21, 1-Cyclopropyl-2-(4-methylpyrimidin-5-yl)-1H-benzo[d]imidazole-6-carbonitrile], the IC50 in assay [1] lay within 1 to 100 nM; in assay [2], 1000 to 10000 nM.

As to `c1ncc(-c2nc3c(n2C2CC2)CCCC3)cn1` [Example 57, 1-Cyclopropyl-2-(pyrimidin-5-yl)-4,5,67-tetrahydro-1H-benzo[d]imidazole], the results for the IC50 in assay [1] and in assay [2] were 1000 to 10000 nM and above 10000 nM, respectively.

Regarding `Clc1ccc2nc(-c3cncnc3)n(C3CC3)c2c1` [Example 23, 6-Chloro-1-cyclopropyl-2-(pyrimidin-5-yl)-1H-benzo[d]imidazole], the IC50 is 1 to 100 nM in assay [1] and 1000 to 10000 nM in assay [2].

Consider `CC(C)c1ncncc1-c1nc2cc(F)c(F)cc2n1C1CC1` [Example 22, 1-Cyclopropyl-5,6-difluoro-2-(4-isopropylpyrimidin-5-yl)-1H-benzo[d]imidazole], for which the IC50 in assay [1] lay in the range of 1 to 100 nM; in assay [2] it was 100 to 1000 nM.

Consider `CC(C)c1ncncc1-c1nc2ccc(F)cc2n1C1CC1` [Example 13, 1-Cyclopropyl-6-fluoro-2-(4-isopropylpyrimidin-5-yl)-1H-benzo[d]imidazole], for which the half-maximal inhibitory concentration (IC50) in assay [1] lay within 1 to 100 nM; in assay [2], 1000 to 10000 nM.

`CC(C)(O)c1ncncc1-c1nc2ccc(C#N)cc2n1C1CC1` [Example 73, 1-Cyclopropyl-2-(4-(2-hydroxypropan-2-yl)pyrimidin-5-yl)-1H-benzo[d]imidazole-6-carbonitrile]: the IC50 in assay [1] was 100 to 1000 nM; in assay [2], above 10000 nM.

Turning to `CCn1c(-c2cncnc2C(C)C)nc2ccc(C#N)cc21` [Example 41, 1-Ethyl-2-(4-isopropylpyrimidin-5-yl)-1H-benzo[d]imidazole-6-carbonitrile], the IC50 in assay [1] was 1 to 100 nM; in assay [2] it was 1000 to 10000 nM.

Take `CCc1ncncc1-c1nc2ccc(F)cc2n1C1CC1` [Example 5, 1-Cyclopropyl-2-(4-ethylpyrimidin-5-yl)-6-fluoro-1H-benzo[d]imidazole]: the IC50 lay in the range of 1 to 100 nM in assay [1] and 1000 to 10000 nM in assay [2].

Turning to `N#Cc1ccc2nc(-c3cncnc3C(F)(F)F)n(C3CC3)c2c1` [Example 60, 1-Cyclopropyl-2-(4-(trifluoromethyl)pyrimidin-5-yl)-1H-benzo[d]imidazole-6-carbonitrile], the results for the IC50 in assay [1] and in assay [2] were 1 to 100 nM and 1000 to 10000 nM, respectively.

Take `CC(C)c1ncncc1-c1nc2ccc(C#N)cc2n1C1CC1` [Example 28, 1-Cyclopropyl-2-(4-isopropylpyrimidin-5-yl)-1H-benzo[d]imidazole-6-carbonitrile]: the IC50 in assay [1] is 1 to 100 nM; in assay [2], 1000 to 10000 nM.

Consider `N#Cc1ccc2nc(-c3cncnc3)n(C3CC3)c2c1` [Example 3, 1-Cyclopropyl-2-(pyrimidin-5-yl)-1H-benzo[d]imidazole-6-carbonitrile], for which the half-inhibitory concentration (IC50) in assay [1] fell in the range of 1 to 100 nM; in assay [2], 1000 to 10000 nM.

With `Fc1cc2nc(-c3cncnc3NCCC(F)(F)F)n(C3CC3)c2cc1F` [Example 37, 5-(1-Cyclopropyl-5,6-difluoro-1H-benzo[d]imidazol-2-yl)-N-(3,3,3-trifluoropropyl)pyrimidin-4-amine], the half-maximal inhibitory concentration (IC50) in assay [1] lay within 1 to 100 nM; in assay [2], 100 to 1000 nM.

For the compound `CCn1c(-c2cncnc2C(F)(F)F)nc2cc(F)c(F)cc21` [Example 67, 1-Ethyl-5,6-difluoro-2-(4-(trifluoromethyl)pyrimidin-5-yl)-1H-benzo[d]imidazole], the values for the IC50 in assay [1] and in assay [2] were 100 to 1000 nM and above 10000 nM, respectively.

`Fc1ccc2nc(-c3cncnc3Cl)n(C3CC3)c2c1` [Example 9, 2-(4-Chloropyrimidin-5-yl)-1-cyclopropyl-6-fluoro-1H-benzo[d]imidazole]: the IC50 in assay [1] is 1 to 100 nM; in assay [2] it was 1000 to 10000 nM.

In the case of `N#Cc1ccc2nc(-c3cncnc3C(F)F)n(C3CC3)c2n1` [Example 63, 3-Cyclopropyl-2-(4-(difluoromethyl)pyrimidin-5-yl)-3H-imidazo[4,5-b]pyridine-5-carbonitrile], the results for the IC50 in assay [1] and in assay [2] were 1 to 100 nM and 1000 to 10000 nM, respectively.

For the compound `CCn1c(-c2cncnc2C(F)(F)F)nc2ccc(C#N)nc21` [Example 69, 3-ethyl-2-(4-(trifluoromethyl)pyrimidin-5-yl)-3H-imidazo[4,5-b]pyridine-5-carbonitrile], the half-maximal inhibitory concentration (IC50) in assay [1] is 100 to 1000 nM; in assay [2], above 10000 nM.

For `FC(F)(F)Oc1ccc2nc(-c3cncnc3)n(C3CC3)c2c1` [Example 42, 1-Cyclopropyl-2-(pyrimidin-5-yl)-6-(trifluoromethoxy)-1H-benzo[d]imidazole], the IC50 in assay [1] was in the range of 100 to 1000 nM; in assay [2], 1000 to 10000 nM.

As to `CC(F)(F)c1ncncc1-c1nc2ccc(C#N)cc2n1C1CC1` [Example 64, 1-Cyclopropyl-2-(4-(1,1-difluoroethyl)pyrimidin-5-yl)-1H-benzo[d]imidazole-6-carbonitrile], the IC50 in assay [1] lay within 1 to 100 nM; in assay [2] it was 1000 to 10000 nM.

Take `CCn1c(-c2cncnc2C(F)(F)F)nc2ccc(Cl)nc21` [Example 68, 5-Chloro-3-ethyl-2-(4-(trifluoromethyl)pyrimidin-5-yl)-3H-imidazo[4,5-b]pyridine]: the half-maximal inhibitory concentration (IC50) in assay [1] is 100 to 1000 nM; in assay [2], above 10000 nM.

Consider `Cc1ncncc1-c1nc2ccc(Cl)nc2n1C1CC1` [Example 48, 5-Chloro-3-cyclopropyl-2-(4-methylpyrimidin-5-yl)-3H-imidazo[4,5-b]pyridine], for which the IC50 in assay [1] is 1 to 100 nM; in assay [2], 1000 to 10000 nM.

For the compound `COCCNc1ncncc1-c1nc2cc(F)c(F)cc2n1C1CC1` [Example 33, 5-(1-Cyclopropyl-5,6-difluoro-1H-benzo[d]imidazol-2-yl)-N-(2-methoxyethyl)pyrimidin-4-amine], the IC50 in assay [1] was 1 to 100 nM; in assay [2], 1000 to 10000 nM.

In the case of `COc1ccc2nc(-c3cncnc3)n(C3CC3)c2c1` [Example 25, 1-Cyclopropyl-6-methoxy-2-(pyrimidin-5-yl)-1H-benzo[d]imidazole], the IC50 was 100 to 1000 nM in assay [1] and above 10000 nM in assay [2].

With `CC(=O)NCCc1ncncc1-c1nc2cc(F)c(F)cc2n1C1CC1` [Example 59, N-(2-(5-(1-Cyclopropyl-5,6-difluoro-1H-benzo[d]imidazol-2-yl)pyrimidin-4-yl)ethyl)acetamide], the IC50 in assay [1] was 1000 to 10000 nM; in assay [2], above 10000 nM.

For the compound `FC(F)c1ncncc1-c1nc2ccc(Cl)nc2n1C1CC1` [Example 62, 5-Chloro-3-cyclopropyl-2-(4-(difluoromethyl)pyrimidin-5-yl)-3H-imidazo[4,5-b]pyridine], the IC50 fell in the range of 100 to 1000 nM in assay [1] and 1000 to 10000 nM in assay [2].

In the case of `Cc1ncncc1-c1nc2ccc(F)cc2n1C1CC1` [Example 4, 1-Cyclopropyl-6-fluoro-2-(4-methylpyrimidin-5-yl)-1H-benzo[d]imidazole], the IC50 in assay [1] lay in the range of 1 to 100 nM; in assay [2], 1000 to 10000 nM.

For the compound `Fc1ccc2nc(-c3cncnc3)n(C3CC3)c2c1F` [Example 2, 1-Cyclopropyl-6,7-difluoro-2-(pyrimidin-5-yl)-1H-benzo[d]imidazole], the IC50 in assay [1] fell in the range of 100 to 1000 nM; in assay [2], 1000 to 10000 nM.

For `CCn1c(-c2cncnc2C(F)F)nc2ccc(C#N)cc21` [Example 51, 2-(4-(Difluoromethyl)pyrimidin-5-yl)-1-ethyl-1H-benzo[d]imidazole-6-carbonitrile], the figures for the IC50 in assay [1] and in assay [2] were 1 to 100 nM and above 10000 nM, respectively.

As for `Fc1ccc2nc(-c3cncnc3C(F)F)n(C3CC3)c2c1` [Example 15, 1-Cyclopropyl-2-(4-(difluoromethyl)pyrimidin-5-yl)-6-fluoro-1H-benzo[d]imidazole], the IC50 in assay [1] fell in the range of 1 to 100 nM; in assay [2] it was 1000 to 10000 nM.

Take `COc1ccc2nc(-c3cncnc3C)n(C3CC3)c2n1` [Example 58, 3-Cyclopropyl-5-methoxy-2-(4-methylpyrimidin-5-yl)-3H-imidazo[4,5-b]pyridine]: the results for the half-maximal inhibitory concentration (IC50) in assay [1] and in assay [2] were 100 to 1000 nM and above 10000 nM, respectively.

In the case of `CCc1ncncc1-c1nc2ccc(C#N)cc2n1C1CC1` [Example 8, 1-Cyclopropyl-2-(4-ethylpyrimidin-5-yl)-1H-benzo[d]imidazole-6-carbonitrile], the concentration for half-maximal inhibition (IC50) lay within 1 to 100 nM in assay [1] and 1000 to 10000 nM in assay [2].

Take `Cc1ncnc(C)c1-c1nc2ccc(F)cc2n1C1CC1` [Example 29, 1-Cyclopropyl-2-(4,6-dimethylpyrimidin-5-yl)-6-fluoro-1H-benzo[d]imidazole]: the half-maximal inhibitory concentration (IC50) in assay [1] and in assay [2] was above 10000 nM throughout.

Usually IC50 stands for the midpoint of a concentration-inhibition curve.
